From US20220296623A1, “REDUCED NICOTINAMIDERIBOSIDES FOR TREATING OR PREVENTING KIDNEY DISEASE” (SOCIETE DES PRODUITS NESTLE S.A., priority 2019, published 2022)
Counter-ions that a name gives are not always drawn.

Assays:
[1] = Stability of NRH or NR spiked in isolated mouse plasma; format: in vitro ADME; details: 2 h of incubation
Excerpt: (§1) Levels of NRH and other NAD-related metabolites in biological samples were obtained by using a cold liquid-liquid extraction using a mixture of methanol:water:chloroform in 5:3:5 (v/v), from which the polar phase was recovered for hydrophilic interaction ultra-high performance liquid chromatography mass spectrometry (UHPLC-MS) analysis. The UHPLC consisted of a binary pump, a cooled autosampler, and a column oven (DIONEX Ultimate 3000 UHPLC+ Focused, Thermo Scientific), connected to a triple quadrupole spectrometer (TSQ Vantage, Thermo Scientific) equipped with a heated electrospray ionisation (H-ESI) source. Of each sample, 2 μL were injected into the analytical column (2.1 mm×150 mm, 5 μm pore size, 200 Å HILICON iHILIC®-Fusion(P)), guarded by a pre-column (2.1 mm×20 mm, 200 Å HILICON iHILIC®-Fusion(P) Guard Kit) operating at 35° C. The mobile phase (10 mM ammonium acetate at pH 9, A, and acetonitrile, B) was pumped at 0.25 mL/min flow rate over a linear gradient of decreasing organic solvent (0.5-16 min, 90-25% B), followed by re-equilibration for a total run time of 30 min. The MS operated in positive mode at 3500 V with multiple reaction monitoring (MRM). The software Xcalibur v4.1.31.9 (Thermo Scientific) was used for instrument control, data acquisition and processing. Retention time and mass detection was confirmed by authentic standards.
(§2) NR degradation to NAM has been proposed as a limitation for its pharmacological efficacy. To evaluate whether NRH was also susceptible to degradation to NAM, we spiked NRH or NR in isolated mouse plasma. […] We also tested the stability of NRH in other matrixes.

[2] = Stability in FBS supplemented media; format: in vitro ADME
Excerpt: as §2

[3] = test system: NAD+ levels in liver, muscle and kidney; test: Tissue NAD+ levels after intraperitoneal injection of NR or NRH; format: in vivo, mice; details: IP 500 mg/kg, after 1 h
Procedure: (§3) The above results prompted us to test whether NRH could act as an effective NAD+ precursor in vivo. For this, we first intraperitoneally (IP) injected mice with either NR or NRH (500 mg/kg).

[4] = Circulating NAM, NRH and NR after intraperitoneal injection; format: in vivo, mice; details: IP 500 mg/kg
Excerpt: as §1, §3

[5] = parameters: species or system mice; details: mouse, in vivo, po
Excerpt: as §1
Oral administration of NRH led to very similar results to those observed after IP administration. […] In contrast, NR levels were undetectable at 1 h after NR administration. As expected, NR treatment led to large increases in circulating NAM, which where ˜4-fold higher than those observed after NRH treatment.

NRK1 = test: NAD+ levels in primary hepatocytes from control or NRK1 knockout mice; details: 1 hour of treatment

NC(=O)c1ccc[n+]([C@@H]2O[C@H](CO)[C@@H](O)[C@H]2O)c1 [NR, 1-b-D-ribofuranosyl-3-pyridinecarboxamide salt, reference compound]
compound levels in isolated mouse plasma [1]: decayed in plasma | generation of NAM in isolated mouse plasma [1]: increase in NAM | degradation to NAM in FBS supplemented media [2]: as occurs with NR | NAD+ levels in kidney [3]: increased NAD+ levels | NAD+ levels in liver [3]: increased NAD+ levels | NAD+ levels in muscle [3]: increased NAD+ levels | NAM levels in circulation [4]: highly increased in circulation | circulating NAM after NR treatment relative to NRH treatment ([5]; C57BI/6NTac, 1 h): ~4 fold | administered compound in plasma [5]: undetectable | NAD+ levels in NRK1KO derived primary hepatocytes (NRK1): failed to increase NAD+ levels
